Active and inactive are the calls of the source. How the calls were made is not given here.

For this series, the system named is CCRIS mutagenicity, Ames/micronucleus/aberration tests. The experiment in a line: CCRIS mutagenicity studies.
Where [1] appears, read: Test System: AMES SALMONELLA TYPHIMURIUM, Strain/Indicator: TA98, Metabolic Activation: NONE, Method: PREINCUBATION
Setting [2] is: Test System: AMES SALMONELLA TYPHIMURIUM, Strain/Indicator: TA100, Metabolic Activation: NONE, Method: PREINCUBATION
Setting [3] is: Test System: AMES SALMONELLA TYPHIMURIUM, Strain/Indicator: TA100, Metabolic Activation: NONE, Method: STANDARD PLATE.

As for `O=C(O)C(Cl)(Cl)Cl`, the mutagenic call runs as follows: (End Point: IN VIVO MICRONUCLEUS, Test System: BONE MARROW POLYCHROMATIC ERYTHROCYTES, Species: MOUSE, Strain/Sex: C57BL/6JFBL10/ALPK/FEMALE, Route: IP INJECTION 2 TIMES AT 24 HR INTERVAL) “inactive; negative”; (End Point: IN VIVO MICRONUCLEUS, Test System: BONE MARROW POLYCHROMATIC ERYTHROCYTES, Species: MOUSE, Strain/Sex: C57BL/6JFBL10/ALPK/MALE, Route: IP INJECTION 2 TIMES AT 24 HR INTERVAL) “inactive; negative; a statistically significant increase was observed at 675 mg/kg after 2”; (Test System: AMES SALMONELLA TYPHIMURIUM, Strain/Indicator: RSJ100, Metabolic Activation: NONE, Method: PREINCUBATION) “inactive; negative”; (Test System: AMES SALMONELLA TYPHIMURIUM, Strain/Indicator: RSJ100, Metabolic Activation: RAT LIVER S-9, Method: PREINCUBATION) “inactive; negative”; under setting [1], “inactive; negative”; (Test System: AMES SALMONELLA TYPHIMURIUM, Strain/Indicator: TA98, Metabolic Activation: RAT LIVER S-9, Method: PREINCUBATION) “inactive; negative”. For the same molecule, the mutagenic call is “inactive; negative” (Test System: AMES SALMONELLA TYPHIMURIUM, Strain/Indicator: TA98, Metabolic Activation: RAT, LIVER, S-9, PHENOBARBITAL AND 5,6-BENZOFLAVONE, Method: PREINCUBATION); “inactive; negative” (Test System: AMES SALMONELLA TYPHIMURIUM, Strain/Indicator: TA100, Metabolic Activation: NONE, Method: BAG VAPORIZATION); “active; positive” (Test System: AMES SALMONELLA TYPHIMURIUM, Strain/Indicator: TA100, Metabolic Activation: NONE, Method: FLUCTUATION TEST); “inactive; negative” under setting [2]; “inactive; negative” (Test System: AMES SALMONELLA TYPHIMURIUM, Strain/Indicator: TA100, Metabolic Activation: RAT LIVER S-9, Method: PREINCUBATION); “inactive; negative” (Test System: AMES SALMONELLA TYPHIMURIUM, Strain/Indicator: TA100, Metabolic Activation: RAT, LIVER, S-9, AROCLOR 1254, Method: BAG VAPORIZATION). The mutagenic call (Test System: AMES SALMONELLA TYPHIMURIUM, Strain/Indicator: TA100, Metabolic Activation: RAT, LIVER, S-9, AROCLOR 1254, Method: FLUCTUATION TEST) was “active; positive”; the mutagenic call (Test System: AMES SALMONELLA TYPHIMURIUM, Strain/Indicator: TA100, Metabolic Activation: RAT, LIVER, S-9, PHENOBARBITAL AND 5,6-BENZOFLAVONE, Method: PREINCUBATION) was “inactive; negative”; the mutagenic call (Test System: AMES SALMONELLA TYPHIMURIUM, Strain/Indicator: TA102, Metabolic Activation: NONE, Method: STANDARD PLATE) was “inactive; negative”; the mutagenic call (Test System: AMES SALMONELLA TYPHIMURIUM, Strain/Indicator: TA102, Metabolic Activation: RAT LIVER S-9, AROCLOR 1254, Method: STANDARD PLATE) was “inactive; negative”; the mutagenic call (Test System: MOUSE LYMPHOMA, Strain/Indicator: L5178Y (TK+/TK- -3.7.2C), Metabolic Activation: S-9) is “active; positive”.
As to `CC(Cl)C(Br)CBr` (stereo unspecified), the mutagenic call is “active; positive” (Test System: AMES SALMONELLA TYPHIMURIUM, Strain/Indicator: TA100, Metabolic Activation: RAT, LIVER, MICROSOMES, PHENOBARBITAL, Method: PREINCUBATION) and “active; positive” (Test System: AMES SALMONELLA TYPHIMURIUM, Strain/Indicator: TA100, Metabolic Activation: RAT, LIVER, MICROSOMES, Method: PREINCUBATION).
As to `Cc1ccccc1C1=C(C(=O)O)O1`, under setting [3], the mutagenic call was “inactive; negative”.
`CC(O)CNCC(C)O` (stereo unspecified): the mutagenic call is “inactive; negative” (Test System: AMES SALMONELLA TYPHIMURIUM, Strain/Indicator: TA98, Metabolic Activation: HAMSTER, LIVER, S-9, AROCLOR 1254 (10%), Method: PREINCUBATION); “inactive; negative” under setting [1]; “inactive; negative” (Test System: AMES SALMONELLA TYPHIMURIUM, Strain/Indicator: TA98, Metabolic Activation: RAT, LIVER, S-9, AROCLOR 1254 (10%), Method: PREINCUBATION); “inactive; negative” (Test System: AMES SALMONELLA TYPHIMURIUM, Strain/Indicator: TA100, Metabolic Activation: HAMSTER, LIVER, S-9, AROCLOR 1254 (10%), Method: PREINCUBATION); “inactive; negative” under setting [2]; “inactive; negative” (Test System: AMES SALMONELLA TYPHIMURIUM, Strain/Indicator: TA100, Metabolic Activation: RAT, LIVER, S-9, AROCLOR 1254 (10%), Method: PREINCUBATION). Besides, the mutagenic call by setting is: (Test System: AMES SALMONELLA TYPHIMURIUM, Strain/Indicator: TA1535, Metabolic Activation: HAMSTER, LIVER, S-9, AROCLOR 1254 (10%), Method: PREINCUBATION) “inactive; negative”; (Test System: AMES SALMONELLA TYPHIMURIUM, Strain/Indicator: TA1535, Metabolic Activation: NONE, Method: PREINCUBATION) “inactive; negative”; (Test System: AMES SALMONELLA TYPHIMURIUM, Strain/Indicator: TA1535, Metabolic Activation: RAT, LIVER, S-9, AROCLOR 1254 (10%), Method: PREINCUBATION) “inactive; negative”; (Test System: AMES SALMONELLA TYPHIMURIUM, Strain/Indicator: TA1537, Metabolic Activation: HAMSTER, LIVER, S-9, AROCLOR 1254 (10%), Method: PREINCUBATION) “inactive; negative”; (Test System: AMES SALMONELLA TYPHIMURIUM, Strain/Indicator: TA1537, Metabolic Activation: NONE, Method: PREINCUBATION) “inactive; negative”; (Test System: AMES SALMONELLA TYPHIMURIUM, Strain/Indicator: TA1537, Metabolic Activation: RAT, LIVER, S-9, AROCLOR 1254 (10%), Method: PREINCUBATION) “inactive; negative”.
`CNC(=O)Oc1cccc2c1OC(C)(C)O2`: the mutagenic call was “inactive; negative” (End Point: IN VIVO MICRONUCLEUS, Test System: BONE MARROW POLYCHROMATIC ERYTHROCYTES, Species: RABBIT, Strain/Sex: HYBRID HYLA/MALE, FEMALE, Route: ORAL (GAVAGE)); “active; positive” (End Point: In vitro Chromosomal aberrations, Test System: Human lymphocytes, Metabolic Activation: Activation by unspecified source); “inactive; negative” (End Point: In vitro Chromosomal aberrations, Test System: Human lymphocytes, Metabolic Activation: None).
As for `Cc1ccccc1N=O`, the mutagenic call is, setting by setting: (Test System: AMES SALMONELLA TYPHIMURIUM, Strain/Indicator: TA98, Metabolic Activation: NONE, Method: STANDARD PLATE) “inactive; negative”; (Test System: AMES SALMONELLA TYPHIMURIUM, Strain/Indicator: TA98, Metabolic Activation: RAT, LIVER, S-9, AROCLOR 1254, Method: PREINCUBATION) “inactive; negative”; (Test System: AMES SALMONELLA TYPHIMURIUM, Strain/Indicator: TA98, Metabolic Activation: RAT, LIVER, S-9, AROCLOR 1254, Method: STANDARD PLATE) “inactive; negative”; under setting [3], “inactive; negative”; (Test System: AMES SALMONELLA TYPHIMURIUM, Strain/Indicator: TA100, Metabolic Activation: RAT, LIVER, S-9, AROCLOR 1254, Method: STANDARD PLATE) “active; positive”.
In the case of `Cc1cccc(Nc2cc(Cl)nc(SCC(=O)O)n2)c1C`, the mutagenic call is, setting by setting: (Test System: AMES SALMONELLA TYPHIMURIUM, Strain/Indicator: TA98, Metabolic Activation: NONE) “inactive; negative”; (Test System: AMES SALMONELLA TYPHIMURIUM, Strain/Indicator: TA98, Metabolic Activation: RAT, LIVER, S-9, AROCLOR 1254) “inactive; negative”; (Test System: AMES SALMONELLA TYPHIMURIUM, Strain/Indicator: TA102, Metabolic Activation: NONE) “inactive; negative”; (Test System: AMES SALMONELLA TYPHIMURIUM, Strain/Indicator: TA102, Metabolic Activation: RAT, LIVER, S-9, AROCLOR 1254) “inactive; negative”; (Test System: AMES SALMONELLA TYPHIMURIUM, Strain/Indicator: TA104, Metabolic Activation: NONE) “inactive; negative”; (Test System: AMES SALMONELLA TYPHIMURIUM, Strain/Indicator: TA104, Metabolic Activation: RAT, LIVER, S-9, AROCLOR 1254) “inactive; negative”. Further, the mutagenic call (Test System: UDS RAT HEPATOCYTES, Strain/Indicator: BROMODEOXYURIDINE INCORP, Metabolic Activation: NONE) is “active; positive”; the mutagenic call (Test System: UDS RAT HEPATOCYTES, Strain/Indicator: BROMODEOXYURIDINE INCORP, Metabolic Activation: NONE, Method: FLOW CYTOMETRIC ANALYSIS) is “inactive; negative”; the mutagenic call (Test System: UDS RAT HEPATOCYTES, Strain/Indicator: THY INCORP, Metabolic Activation: NONE, Method: AUTORADIOGRAPHY) was “inactive; negative”; the mutagenic call (Test System: UDS RAT HEPATOCYTES, Strain/Indicator: THY INCORP, Metabolic Activation: NONE, Method: LIQUID SCINTILLATION COUNTING) was “active; positive”.
Regarding `C/C=C(/C)C(=O)O[C@@H]1CCN2CC=C(CO)[C@H]12`, the mutagenic call (Test System: AMES SALMONELLA TYPHIMURIUM, Strain/Indicator: TA100, Metabolic Activation: RAT, LIVER, S-9, SODIUM PHENOBARBITAL AND BETA-NAPHTHOFLAVONE, Method: PREINCUBATION) was “inactive; negative”.

For the origin of these results see PubChem BioAssay AID1259407 (Chemical Carcinogenesis Research Information System (CCRIS), 2018).
